Several values for one entry are separate records, joined by “and”; a condition that tells them apart may be missing. Equal entries are not always repeated. ± gives the expanded uncertainty stated by the source.
Legend:
[1] = DTA
[2] = Molar enthalpy of transition or fusion; details: DSC
[3] = molar heat capacity at constant pressure; details: 101.33 kPa, Large sample (1 g) DSC

CC(C)C(N)=O [2-methylpropanamide]
Crystal
Details	Molar enthalpy of transition or fusion	Normal melting temperature
[1]	–	127.0 ± 0.4 °C and 127.2 ± 0.4 °C
[2]	19.2 kJ/mol and 19.3 kJ/mol	–

[3], Crystal
Details	molar heat capacity at constant pressure [J/K/mol]
183 K	100.8 ± 1.9
188 K	102.9 ± 2.3
193 K	105 ± 1.8
198 K	107.1 ± 1.8
203 K	110.5 ± 2.4
208 K	112.4 ± 2.3
213 K	114 ± 2.3
218 K	115.6 ± 2.4
223 K	118.7 ± 2.1
228 K	120.3 ± 1.9
233 K	122.8 ± 2.4
238 K	124.8 ± 1.9
243 K	127.3 ± 2.4
248 K	130.8 ± 2
253 K	132.6 ± 2.6
258 K	134.6 ± 2.5
263 K	137.6 ± 2.7
268 K	138.8 ± 2.7
273 K	141.9 ± 2.7
278 K	144.6 ± 2.6
283 K	146.5 ± 2.4
288 K	148.5 ± 2.6
293 K	150.9 ± 2.5
298 K	152.4 ± 2.7
303 K	154.1 ± 2.8
308 K	158 ± 2.7
313 K	160.2 ± 2.5
318 K	162.7 ± 2.9
323 K	164.5 ± 2.9

CC(C)(C)C(N)=O [2,2-dimethylpropanamide]
Crystal
Details	Molar enthalpy of transition or fusion	Normal melting temperature
[1]	–	152.2 ± 0.4 °C and 152.5 ± 0.4 °C
[2]	24.1 kJ/mol and 25.6 kJ/mol	–

[3], Crystal
Details	molar heat capacity at constant pressure [J/K/mol]
188 K	115.7 ± 2.2
193 K	117.6 ± 1.9
198 K	120.8 ± 2.5
203 K	123 ± 2.2
208 K	124.8 ± 2.5
213 K	126.4 ± 2.1
218 K	129.1 ± 2.2
223 K	131.5 ± 2.1
228 K	133.4 ± 2.6
233 K	136.6 ± 2.2
238 K	137.9 ± 2.2
243 K	140.2 ± 2.6
248 K	142.8 ± 2.3
253 K	144.5 ± 2.7
258 K	147.5 ± 2.4
263 K	149.2 ± 2.7
268 K	150.9 ± 2.5
273 K	153.8 ± 2.7
278 K	156.3 ± 2.4
283 K	158.3 ± 2.5
288 K	161.1 ± 2.6
293 K	163 ± 2.7
298 K	163.7 ± 2.7
303 K	165.4 ± 2.7
308 K	167.9 ± 2.7
313 K	170.2 ± 2.6
318 K	172.7 ± 2.7
323 K	174.2 ± 2.7

CCC(N)=O [propanamide]
Crystal
Details	Molar enthalpy of transition or fusion [kJ/mol]	Normal melting temperature [°C]
[1]	–	79.5 ± 0.4
[2]	12.9 ± 1.1	–

CCCCCCCCCCCCCCCCCC(N)=O [octadecanamide]
Details	Molar enthalpy of transition or fusion, [2]	Normal melting temperature, [1]	Triple point temperature, [1] [K]
Crystal 1	54.8 kJ/mol and 55.1 kJ/mol	106.6 ± 0.5 °C and 107 ± 0.9 °C	–
Crystal 2	2.2 ± 0.3 kJ/mol	–	298.7 ± 0.7

[3], Crystal 2
Details	molar heat capacity at constant pressure [J/K/mol]
208 K	318.2 ± 5
213 K	328.5 ± 5.1
218 K	336.6 ± 5.2
223 K	345.2 ± 5.4
228 K	353.1 ± 5.5
233 K	360.8 ± 5.6
238 K	367.6 ± 5.7
243 K	375.8 ± 5.9
248 K	385.6 ± 6
253 K	393.6 ± 6.1
258 K	403.2 ± 6.3

CCCCCCCCCC(N)=O [decanamide]
Details	Molar enthalpy of transition or fusion, Crystal 1	Molar enthalpy of transition or fusion, Crystal 2	Molar enthalpy of transition or fusion, Crystal 3 [kJ/mol]	Normal melting temperature, Crystal 1	Triple point temperature, Crystal 2	Triple point temperature, Crystal 3
[1]	–	–	–	97.5 ± 0.8 °C and 97.8 ± 0.4 °C	366.3 ± 1 K and 366.9 ± 0.7 K	218.7 ± 0.6 K and 218.7 ± 0.4 K
[2]	15.1 kJ/mol and 17.4 kJ/mol	18.8 kJ/mol and 21.1 kJ/mol	1.05	–	–	–

[3], Crystal 2
Details	molar heat capacity at constant pressure [J/K/mol]
263 K	236.4 ± 3.7
268 K	238.5 ± 3.7
273 K	247.6 ± 3.9
278 K	251.1 ± 3.9
283 K	260.7 ± 4.1
288 K	266.4 ± 4.2
293 K	270.2 ± 4.2
298 K	272.4 ± 4.2
303 K	278.5 ± 4.4
308 K	287 ± 4.5
313 K	291.6 ± 4.6
318 K	297.9 ± 4.7
323 K	304.4 ± 4.8

CCCCCC(N)=O [hexanamide]
Details	Molar enthalpy of transition or fusion, [2]	Normal melting temperature, [1]	Triple point temperature, [1]
Crystal 1	16.7 kJ/mol and 17.6 kJ/mol	100 ± 0.4 °C and 100 ± 0.9 °C	–
Crystal 2	7.9 kJ/mol	–	305.1 ± 0.4 K and 306 ± 0.7 K

[3], Crystal 2
Details	molar heat capacity at constant pressure [J/K/mol]
183 K	119.1 ± 2.1
188 K	121.1 ± 2.4
193 K	126.6 ± 2.2
198 K	128.6 ± 2
203 K	132.5 ± 2.4
208 K	135.8 ± 2.2
213 K	138.8 ± 2.2
218 K	142.1 ± 2.2
223 K	146.7 ± 2.3
228 K	150.8 ± 2.4
233 K	155.3 ± 2.4
238 K	160.1 ± 2.5
243 K	165.6 ± 2.7
248 K	169.6 ± 2.6
253 K	173.1 ± 2.9

CCCCCCCCCCCCCCCC(N)=O [hexadecanamide]
Details	Molar enthalpy of transition or fusion, [2]	Normal melting temperature, [1]	Triple point temperature, [1]
Crystal 1	45.4 kJ/mol and 45.2 kJ/mol	103 ± 0.8 °C and 102.5 ± 0.8 °C	–
Crystal 2	10.4 kJ/mol and 10.3 kJ/mol	–	355.5 ± 0.8 K and 356.1 ± 0.5 K

[3], Crystal 2
Details	molar heat capacity at constant pressure [J/K/mol]
208 K	267.5 ± 4.3
213 K	273.7 ± 4.7
218 K	276.5 ± 4.6
223 K	282.8 ± 4.5
228 K	289 ± 4.8
233 K	297.1 ± 4.8
238 K	302.6 ± 4.9
243 K	310.3 ± 4.9
248 K	319.5 ± 5.1
253 K	323.8 ± 5.2
258 K	331.6 ± 5.4
263 K	340.1 ± 5.5
268 K	348.1 ± 5.5
273 K	357.9 ± 5.6
278 K	364.8 ± 5.9
283 K	371.6 ± 5.9
288 K	378.1 ± 6
293 K	387.6 ± 6.1
298 K	394.3 ± 6.1
303 K	401.8 ± 6.4

— the NIST ThermoML archive (doi:10.1021/je700662a)
